One series has as its system A. aureus. The class given is cell-based. How it is done: (§1) All bacteria were cultured in Luria-Bertani (LB) medium (10 g/l tryptone, 5 g/l yeast extract, 5 g/l NaCl, pH 7.4).
(§2) Bacteria were grown overnight in LB growth medium and diluted 10,000-fold in same medium.
(§3) Inhibition of proliferation was determined by optical density measurements (620 nm) after incubation overnight at 37° C.

A further series has as its system E. coli. Format: cell-based. How it is done:
as §1, §2, §3

Series [1] in a line: Cochleate formation by light microscopy. Format: physicochemical. Also on record: key: or above (E!); excellent (E); good (G); poor (P); none (N). How it is done: Lipid films containing binary mixtures of lipids were made from aliquots of stock solutions in chloroform:methanol (2:1). The solvent was evaporated with a stream of nitrogen gas and the lipids deposited as a film on the walls of a glass tube. The tubes were then placed in a vacuum dessicator for 3 hours. The films were kept under Argon at −20° C. The lipid films were hydrated with buffer solutions of OAK polymers with extensive vortexing, so as to have a lipid to polymer molar ratio of […].
Hydrated films were subjected to freeze thawing three times before imaging, to ensure proper equilibration of OAK with the multilamellar vesicles. A drop of this mixture was placed on a glass slide and covered with a glass coverslip. Light microscopy was carried out at room temperature using a Zeiss Axiovert 100M microscope with a Plan-Neofluar 100×/1.3 oil immersion objective. Images were analyzed with the Zeiss LSM image browser v2.8.
The morphology of the samples of different OAKs and different lipid mixtures could be classified into the following categories.
Table 5 presents the results of cochleate formation with different lipid mixtures of 1:10 lipid to polymer ratio, and a series of OAK polymers, indicated by their alternative denotations and SED ID Nos in parentheses. “Tm” denotes the melting temperature of the lipid bilayer afforded by the given lipid mixture. Some selected samples were further analyzed to confirm the results with freeze fracture electron microscopy for, as indicated in Table 5. Cochleate formation is defined as excellent (E) or above (E!), good (G), poor (P), or none (N) based on the aforementioned comparison, as well as on the abundance of cochleate structures observed in the light microscopy images. Lipid mixtures having a number in parenthesis are samples for which freeze-fracture electron microscopy analysis was conducted. Lipid mixtures having a “+” sign next to the number in parenthesis are samples which were confirmed by freeze-fracture electron microscopy as forming large cochleates with few vesicles and no inverted micellar (HII) morphology (samples 2, 3 and 5), or smaller cochleate structures mixed with other morphologies (samples 0 and 4). Lipid mixtures which contain only anionic lipids are marked with “^A”. Sample 0 is the lipid/OAK system used and presented in Example 1 hereinabove.

The nature of series [2]: Molecular charge and RP-HPLC hydrophobicity of polymers. Format: physicochemical. Conditions: HPLC-RP gradient mobile phase. An excerpt:
Briefly, the polymers were synthesized while applying the Fmoc active ester chemistry on a fully automated, programmable peptide synthesizer (Applied Biosystems 433A). After cleavage from the resin, the crude product was extracted with 30% acetonitrile in water and purified by RP-HPLC (Alliance Waters), so as to obtain a chromatographic homogeneity higher than 95%. HPLC runs were typically performed on C18 columns (Vydac, 250 mm×4.6 or 10 mm) using a linear gradient of acetonitrile in water (1% per minute), both solvents containing 0.1% trifluoroacetic acid. The purified polymers were subjected to mass spectrometry (ZQ Waters) and NMR analyses to confirm their composition, and stored as a lyophilized powder at −20° C. Prior to being tested, fresh solutions were prepared in water, vortexed, sonicated, centrifuged and then diluted in the appropriate medium.
“Q” represents the overall molecular charge at physiological pH; “ACN (%)” represents the percent of acetonitrile in the HPLC-RP gradient mobile phase at which the polymer was eluted and which corresponds to the estimated hydrophobicity of the polymer. The column headed by “Ref.” indicates prior reference of the OAK if present, wherein a number in parentheses “(##)” corresponds to the SEQ ID NO in U.S. Pat. No. 7,504,381; the letter “R” indicates a polymer published in Radzishevsky I. S. et al. (2008), Chem. Biol., 15(4), pp. 354-362; and “New” indicates a novel polymer disclosed herein.

Setting [3] is: DMPC:TOCL 75:25, 1:10 lipid to polymer ratio.
[4] abbreviates: DMPE:DOPG 75:25, 1:10 lipid to polymer ratio.
[5] abbreviates: DMPE:TOCL 75:25, 1:10 lipid to polymer ratio.
The mark [6] stands for this setting: DMPG:TOCL 75:25 (anionic lipids only), 1:10 lipid to polymer ratio.
Setting [7] is: DOPE:TOCL 75:25, 1:10 lipid to polymer ratio.
[8] abbreviates: DPPE:TOCL 75:25, 1:10 lipid to polymer ratio.
Where [9] appears, read: POPC:TOCL 75:25, 1:10 lipid to polymer ratio.
Setting [10] is: POPE:DOPG 75:25, 1:10 lipid to polymer ratio.
Where [11] appears, read: POPE:DOPG:TOCL 80:15:5, 1:10 lipid to polymer ratio.
[12] abbreviates: POPE:TOCL 75:25, 1:10 lipid to polymer ratio.
Setting [13] is: POPG:TOCL 75:25 (anionic lipids only), 1:10 lipid to polymer ratio.
[14] abbreviates: DMPE:TOCL75:25, 10:1 lipid to polymer ratio (Table 6).
Setting [15] is: POPE:TOCL 75:25, 10:1 lipid to polymer ratio (Table 6).

In brackets after ≈: the same amount, converted by molar mass.

For the molecule `CCCCCCCCCCCC(=O)N[C@@H](CCCCN)C(=O)NCCCCCCCC(=O)N[C@@H](CCCCN)C(=O)NCCCCCCCC(=O)N[C@@H](CCCCN)C(=O)NCCCCCCCC(=O)N[C@@H](CCCCN)C(=O)NCCCCCCCC(=O)N[C@@H](CCCCN)C(=O)NCCCCCCCC(=O)N[C@@H](CCCCN)C(N)=O` [C12K-5α8, C12K(NC8K)5NH2], in the series on A. aureus, the “MIC A. aureus” value stood at 50 µM (≈ 83.7 µg/mL). In addition, the “MIC E. coli” value in the series on E. coli worked out at 3.1 µM (≈ 5.19 µg/mL). In addition, the Cochleate formation result in series [1] (setting [3]) is recorded as “N”; in series [1] (setting [4]), “E”; in series [1] (setting [5]), “P”; in series [1] (setting [6]), “G”; in series [1] (setting [7]), “N”; in series [1] (setting [8]) it was “E”. Further, the Cochleate formation entry in series [1] (setting [9]) is “P”; in series [1] (setting [10]), “G”; in series [1] (setting [11]), “N”; in series [1] (setting [12]), “G”; in series [1] (setting [13]), “P”. The “ACN (%) (percent acetonitrile at elution, estimated hydrophobicity)” value in series [2] is given as 49.7%.
As for `CCCCCCCCCCCC(=O)N[C@@H](CCCCN)C(=O)NCCCCCCCC(=O)N[C@@H](CCCCN)C(=O)NCCCCCCCC(=O)N[C@@H](CCCCN)C(=O)NCCCCCCCC(=O)N[C@@H](CCCCN)C(=O)NCCCCCCCC(=O)N[C@@H](CCCCN)C(=O)NCCCCCCCC(=O)N[C@@H](CCCCN)C(=O)NCCCCCCCC(=O)N[C@@H](CCCCN)C(N)=O` [C12K-6α8, C12K(NC8K)6NH2], the “MIC A. aureus” value against A. aureus amounted to 50 µM (≈ 97.2 µg/mL). Besides, in the series with E. coli, the “MIC E. coli” value was determined as 3.1 µM (≈ 6.03 µg/mL). Also, the Cochleate formation result in series [1] (setting [4]) and in series [1] (setting [12]) was “G” each time. For the same molecule, the “ACN (%) (percent acetonitrile at elution, estimated hydrophobicity)” value in series [2] is 50%.
Consider `CCCCCCCCCCCC(=O)N[C@@H](CCCCN)C(=O)NCCCC(=O)N[C@@H](CCCCN)C(=O)NCCCC(=O)N[C@@H](CCCCN)C(=O)NCCCC(=O)N[C@@H](CCCCN)C(=O)NCCCC(=O)N[C@@H](CCCCN)C(=O)NCCCC(=O)N[C@@H](CCCCN)C(=O)NCCCC(=O)N[C@@H](CCCCN)C(=O)NCCCC(=O)N[C@@H](CCCCN)C(N)=O` [C12K-7α4, C12K(NC4K)7NH2], for which the “MIC A. aureus” value in the series with A. aureus is over 50 µM. The “MIC E. coli” value against E. coli was 12.5 µM (≈ 22.8 µg/mL). For the same molecule, the results for the Cochleate formation entry in series [1] (setting [14]) and in series [1] (setting [15]) were “G” and “G-E”, respectively. Moreover, the “ACN (%) (percent acetonitrile at elution, estimated hydrophobicity)” value in series [2] is 45.2%.
In the case of `CCCCCCCCCCCC(=O)N[C@@H](CCCCN)C(=O)NCCCCCCCCCCCC(=O)N[C@@H](CCCCN)C(=O)NCCCCCCCCCCCC(=O)N[C@@H](CCCCN)C(=O)NCCCCCCCCCCCC(=O)N[C@@H](CCCCN)C(=O)NCCCCCCCCCCCC(=O)N[C@@H](CCCCN)C(=O)NCCCCCCCCCCCC(=O)N[C@@H](CCCCN)C(=O)NCCCCCCCCCCCC(=O)N[C@@H](CCCCN)C(=O)NCCCCCCCCCCCC(=O)N[C@@H](CCCCN)C(N)=O` [C12K-7α12, C12K(NC12K)7NH2], the “MIC A. aureus” value with A. aureus is over 50 µM. For the same molecule, in the series on E. coli, the “MIC E. coli” value is over 50 µM. The Cochleate formation result in series [1] (setting [14]) is on record as “P”; in series [1] (setting [15]) it was “N”. Moreover, the “ACN (%) (percent acetonitrile at elution, estimated hydrophobicity)” value in series [2] was 55.2%.
Regarding `CCCCCCCCCCCC(=O)NC(CCCCN)C(=O)NCCCCCCCC(=O)NC(CCCCN)C(=O)NCCCCCCCC(=O)NC(CCCCN)C(=O)NCCCCCCCC(=O)NC(CCCCN)C(=O)NCCCCCCCC(=O)NC(CCCCN)C(=O)NCCCCCCCC(=O)NC(CCCCN)C(=O)NCCCCCCCC(=O)NC(CCCCN)C(=O)NCCCCCCCC(=O)NC(CCCCN)C(=O)NCCCCCCCC(=O)NC(CCCCN)C(N)=O` (stereo not drawn) [C12K-8α8, C12K(NC8K)8NH2], in the series on A. aureus, the “MIC A. aureus” value was over 50 µM. Moreover, the “MIC E. coli” value in the series with E. coli turned out to be 3.1 µM (≈ 7.7 µg/mL). The Cochleate formation result is recorded as “G” in series [1] (setting [4]); “E” in series [1] (setting [5]); “G” in series [1] (setting [7]); “E” in series [1] (setting [8]); “N” in series [1] (setting [10]); “N” in series [1] (setting [11]). For the same molecule, in series [1] (setting [12]), the Cochleate formation entry was “G”. In addition, the “ACN (%) (percent acetonitrile at elution, estimated hydrophobicity)” value in series [2] is recorded as 48.5%.
For the molecule `CCCCCCCCCCCC(=O)NC(CCCCN)C(=O)NCCCCCCCC(=O)NC(CCCCN)C(=O)NCCCCCCCC(=O)NC(CCCCN)C(=O)NCCCCCCCC(=O)NC(CCCCN)C(=O)NCCCCCCCC(=O)NC(CCCCN)C(=O)NCCCCCCCC(=O)NC(CCCCN)C(=O)NCCCCCCCC(=O)NC(CCCCN)C(=O)NCCCCCCCC(=O)NC(CCCCN)C(=O)NCCCCCCCC(=O)NC(CCCCN)C(=O)NCCCCCCCC(=O)NC(CCCCN)C(N)=O` (stereo not drawn) [C12K-9α8, C12K(NC8K)9NH2], the “MIC A. aureus” value against A. aureus was over 50 µM. In the series on E. coli, the “MIC E. coli” value amounted to 6.25 µM (≈ 17.2 µg/mL). Also, the Cochleate formation result in series [1] (setting [3]) is listed as “N”; in series [1] (setting [4]), “E!”; in series [1] (setting [5]) it was “E”; in series [1] (setting [6]), “N”; in series [1] (setting [7]) it was “G”; in series [1] (setting [8]) it was “E”. The Cochleate formation entry is “N” in series [1] (setting [9]), “G” in series [1] (setting [10]), “G” in series [1] (setting [12]) and “P” in series [1] (setting [13]). Moreover, in series [2], the “ACN (%) (percent acetonitrile at elution, estimated hydrophobicity)” value is given as 48.4%.
In the case of `CCCCCCCCCCCC(=O)NC(CCCCN)C(=O)NCCCCCCCC(=O)NC(CCCCN)C(=O)NCCCCCCCC(=O)NC(CCCCN)C(=O)NCCCCCCCC(=O)NC(CCCCN)C(=O)NCCCCCCCC(=O)NC(CCCCN)C(=O)NCCCCCCCC(=O)NC(CCCCN)C(=O)NCCCCCCCC(=O)NC(CCCCN)C(=O)NCCCCCCCC(=O)NC(CCCCN)C(=O)NCCCCCCCC(=O)NC(CCCCN)C(=O)NCCCCCCCC(=O)NC(CCCCN)C(=O)NCCCCCCCC(=O)NC(CCCCN)C(=O)NCCCCCCCC(=O)NC(CCCCN)C(N)=O` (stereo not drawn) [C12K-11α8, C12K(NC8K)11NH2], in the series with A. aureus, the “MIC A. aureus” value is over 50 µM. In addition, in the series with E. coli, the “MIC E. coli” value amounted to 3.1 µM (≈ 10.2 µg/mL). The Cochleate formation entry was “E” in series [1] (setting [4]); “G” in series [1] (setting [5]); “G” in series [1] (setting [7]); “P” in series [1] (setting [8]); “P” in series [1] (setting [9]); “P” in series [1] (setting [10]). For the same molecule, the Cochleate formation entry was “G” in series [1] (setting [12]) and “N” in series [1] (setting [13]). The “ACN (%) (percent acetonitrile at elution, estimated hydrophobicity)” value in series [2] is recorded as 42.2%.
In the case of `NCCCCCCCCCCCC(=O)NC(CCCCN)C(=O)NCCCCCCCC(=O)NC(CCCCN)C(=O)NCCCCCCCC(=O)NC(CCCCN)C(=O)NCCCCCCCC(=O)NC(CCCCN)C(=O)NCCCCCCCC(=O)NC(CCCCN)C(=O)NCCCCCCCC(=O)NC(CCCCN)C(=O)NCCCCCCCC(=O)NC(CCCCN)C(=O)NCCCCCCCC(=O)NC(CCCCN)C(N)=O` (stereo not drawn) [α12-7α8, NC12K(NC8K)7NH2], the “MIC A. aureus” value in the series with A. aureus turned out to be 50 µM (≈ 111 µg/mL). Besides, in the series with E. coli, the “MIC E. coli” value stood at 12.5 µM (≈ 27.9 µg/mL). Moreover, the Cochleate formation result in series [1] (setting [14]) is listed as “E”; in series [1] (setting [15]) it was “G-E”. Besides, the “ACN (%) (percent acetonitrile at elution, estimated hydrophobicity)” value in series [2] is 36.9%.

Values taken from patent US8951563B2, “Antibiotic drug delivery and potentiation” (Technion Research & Development Foundation Limited, priority 2009, dated 2015).
